Consider 28 compounds from patent US9321748B2, “Aminopyridine derived compounds as LRRK2 inhibitors” (H. Lundbeck A/S, priority 2013, dated 2016).

One assay concerns the target LRRK2 G2019S (Homo sapiens (Human), UniProt Q5S007, G2019S). Description: LRRK2 G2019S kinase activity assay (LanthaScreen TR-FRET). It counts as biochemical. Particulars: 250 pM LRRK2 G2019S kinase, 1.3 mM ATP, 0.4 μM fluorescein-LRRKtide. The method, then:
(§1) LRRK2 Wild-Type and G2019S Kinase Activity Assay.
(§2) LRRK2 kinase activity is measured using a LanthaScreen kinase activity assay available from Invitrogen (Life Technologies Corporation). […] The phosphorylated peptide is recognized by a terbium-labelled phospho-specific anti-LRRKtide antibody and, subsequently, the phosphorylated LRRKtide can be quantified by the extent of TR-FRET between the terbium donor and fluorescein acceptor.
(§3) The LRRK2 kinase is obtained from Invitrogen (Life Technologies Corporation) and comprises residue 970 to 2527 of the full length human wildtype LRRK2 kinase or a similar sequence with the G2019S mutation. As discussed above, this mutation increases the kinase activity relative to the wild type. The kinase reactions are performed in a […] volume in 384-well plates. The kinase reaction buffer consists of 50 mM Tris pH 8.5, 0.01% BRIJ-35, 10 mM MgCl2, 1 mM EGTA, and 2 mM DTT.
(§4) The reaction mixture (20 μl total volume) is incubated for 2 hours at 30° C. before the reaction is terminated by addition of 10 mM EDTA and 1 nM terbium-labelled anti-phospho-LRRKtide antibody (final volume […]). The mixture is further incubated for 30 minutes at RT. TR-FRET is measured by excitation of the terbium-donor with 340 nm light and subsequent (delay time 100 μs) measurement of terbium and fluorescein emission at 495 nm and 520 nm, respectively, over a time window of 1000 μs. The measurement is repeated 10 times for fluorescein and 10 times for terbium emission with a 2000 μs time window between repeats. TR-FRET measurements are performed on a […] plate. The TR-FRET signal is calculated as the emission-ratio at 520 nm over 495 nm.
(§5) Test compound potency (IC50) was estimated by nonlinear regression using the sigmoidal dose-response (variable slope) using Xlfit 4 (IDBS, Guildford, Surrey, UK, model 205). y=(A+((B−A)/(1+((C/x)^D)))) where y is the normalized TR-TRET ratio measurement for a given concentration of test compound, x is the concentration of test compound, A is the estimated efficacy (% inhibition) at infinite compound dilution, and B is the maximal efficacy (% inhibition). C is the IC50 value and D is the Hill slope coefficient. IC50 estimates were obtained from independent experiment and the logarithmic average was calculated.
In general terms: In TR-FRET formats the signal depends on donor and acceptor labels being close together.

Another assay addresses LRRK2 WT (Homo sapiens (Human), UniProt Q5S007). Description: LRRK2 wild-type kinase activity assay (LanthaScreen TR-FRET). Format: biochemical. Particulars: 1 nM LRRK2 WT kinase, 1.3 mM ATP, 0.4 μM fluorescein-LRRKtide. The method, then: as §1, §2, §3, §4, §5

The structures appear in SMILES notation.

Sequence of LRRK2 WT (Q5S007 970-2527): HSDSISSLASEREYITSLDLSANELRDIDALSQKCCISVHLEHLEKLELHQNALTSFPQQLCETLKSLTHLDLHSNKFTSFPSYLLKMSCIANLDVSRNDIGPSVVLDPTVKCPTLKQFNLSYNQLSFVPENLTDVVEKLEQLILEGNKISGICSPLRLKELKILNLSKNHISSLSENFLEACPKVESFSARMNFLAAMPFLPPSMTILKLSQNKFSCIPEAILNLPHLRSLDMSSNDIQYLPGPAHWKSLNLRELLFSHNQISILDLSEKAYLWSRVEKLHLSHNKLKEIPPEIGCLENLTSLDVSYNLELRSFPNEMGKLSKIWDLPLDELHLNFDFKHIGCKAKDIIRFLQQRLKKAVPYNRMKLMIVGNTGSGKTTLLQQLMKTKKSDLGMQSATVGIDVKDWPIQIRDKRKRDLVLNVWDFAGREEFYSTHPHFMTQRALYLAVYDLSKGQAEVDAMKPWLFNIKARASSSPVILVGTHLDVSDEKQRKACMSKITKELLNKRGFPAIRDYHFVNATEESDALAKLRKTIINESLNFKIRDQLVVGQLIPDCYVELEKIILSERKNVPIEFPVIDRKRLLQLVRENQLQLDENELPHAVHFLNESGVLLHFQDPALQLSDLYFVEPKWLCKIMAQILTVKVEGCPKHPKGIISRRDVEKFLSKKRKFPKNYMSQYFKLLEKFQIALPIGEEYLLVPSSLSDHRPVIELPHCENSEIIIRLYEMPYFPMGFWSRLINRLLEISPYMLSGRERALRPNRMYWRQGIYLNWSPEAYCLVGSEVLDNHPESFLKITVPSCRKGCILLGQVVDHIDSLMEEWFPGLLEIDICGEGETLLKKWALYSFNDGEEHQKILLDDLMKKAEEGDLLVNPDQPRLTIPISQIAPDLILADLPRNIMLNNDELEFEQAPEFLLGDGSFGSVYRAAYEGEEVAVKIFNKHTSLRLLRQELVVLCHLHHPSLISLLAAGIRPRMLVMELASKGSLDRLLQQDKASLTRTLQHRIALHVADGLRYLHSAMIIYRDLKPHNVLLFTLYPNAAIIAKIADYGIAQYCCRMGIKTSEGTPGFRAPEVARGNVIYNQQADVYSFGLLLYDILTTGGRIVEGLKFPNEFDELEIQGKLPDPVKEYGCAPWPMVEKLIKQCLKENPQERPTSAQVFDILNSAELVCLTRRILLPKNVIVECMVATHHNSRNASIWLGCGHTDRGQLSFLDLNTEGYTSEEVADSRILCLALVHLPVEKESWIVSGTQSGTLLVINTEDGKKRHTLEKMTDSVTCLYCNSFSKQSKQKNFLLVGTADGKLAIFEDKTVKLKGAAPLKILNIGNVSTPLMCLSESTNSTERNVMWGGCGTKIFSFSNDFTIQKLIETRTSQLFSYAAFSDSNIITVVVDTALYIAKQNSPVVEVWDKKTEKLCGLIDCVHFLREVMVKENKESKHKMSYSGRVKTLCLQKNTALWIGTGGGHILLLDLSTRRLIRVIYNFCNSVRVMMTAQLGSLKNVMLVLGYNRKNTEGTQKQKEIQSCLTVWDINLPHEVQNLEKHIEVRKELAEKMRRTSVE
Sequence of LRRK2 G2019S (Q5S007 970-2527 G2019S): as the sequence (Q5S007 970-2527) above, with G1050S counted along it

In the case of `CC(C)c1nnc(-c2cc(-c3ccc4[nH]ccc4c3)cnc2N)o1` [Example 1, 5-(1H-Indol-5-yl)-3-(5-isopropyl-[1,3,4]oxadiazol-2-yl)-pyridin-2-ylamine], at LRRK2 G2019S, the IC50 (usually the concentration that inhibits the measured activity by half) was found to be 910 nM. As for `Nc1ncc(-c2ccc3[nH]ccc3c2)cc1-c1nnc(C2CC2)o1` [Example 2, 3-(5-Cyclopropyl-[1,3,4]oxadiazol-2-yl)-5-(1H-indol-5-yl)-pyridin-2-ylamine], the IC50 is 1000 nM at LRRK2 G2019S and 570 nM at LRRK2 WT. The matching figures for `CN1CCc2cc(-c3cnc(N)c(-c4nnc(C5CC5)o4)c3)ccc21` [Example 3, 3-(5-Cyclopropyl-[1,3,4]oxadiazol-2-yl)-5-(1-methyl-2,3-dihydro-1H-indol-5-yl)-pyridin-2-ylamine]: 710 nM and 970 nM.

As to `Cc1ccc(-c2cnc(N)c(-c3nnc(C4CCN(C)CC4)o3)c2)cc1` [Example 4, 3-[5-(1-Methyl-piperidin-4-yl)-[1,3,4]oxadiazol-2-yl]-5-p-tolyl-pyridin-2-ylamine], the IC50 at LRRK2 G2019S was 860 nM; on LRRK2 WT, 3600 nM. `CN1CCc2cc(-c3cnc(N)c(-c4nnc(C5CCNCC5)o4)c3)ccc21` [Example 5, 5-(1-Methyl-2,3-dihydro-1H-indol-5-yl)-3-(5-piperidin-4-yl-[1,3,4]oxadiazol-2-yl)-pyridin-2-ylamine]: the IC50 worked out at 380 nM at LRRK2 G2019S and 2200 nM at LRRK2 WT. Turning to `Nc1ncc(-c2ccc(CN3CCOCC3)cc2)cc1-c1nnc(C2CC2)o1` [Example 6, 3-(5-Cyclopropyl-[1,3,4]oxadiazol-2-yl)-5-(4-morpholin-4-ylmethyl-phenyl)-pyridin-2-ylamine], the IC50 was 390 nM on LRRK2 G2019S and 490 nM on LRRK2 WT. The matching figures for `COc1cccc(-c2cnc(N)c(-c3nnc(C4CCNCC4)o3)c2)c1` [Example 7, 5-(3-Methoxy-phenyl)-3-(5-piperidin-4-yl-[1,3,4]oxadiazol-2-yl)-pyridin-2-ylamine]: 1000 nM and 3300 nM. `COc1cccc(-c2cnc(N)c(-c3nnc(C4CCN(C)CC4)o3)c2)c1` [Example 8, 5-(3-Methoxy-phenyl)-3-[5-(1-methyl-piperidin-4-yl)-[1,3,4]oxadiazol-2-yl]-pyridin-2-ylamine]: the IC50 on LRRK2 G2019S turned out to be 880 nM; at LRRK2 WT, 2200 nM. The matching figures for `CC(C)n1cc(-c2cc(-c3ccc4c(ccn4C)c3)cnc2N)nn1` [Example 9, 3-(1-Isopropyl-1H-[1,2,3]triazol-4-yl)-5-(1-methyl-1H-indol-5-yl)-pyridin-2-ylamine]: 540 nM and 550 nM. On the same counts, the results for `CC(C)n1cc(-c2cc(-c3ccc4c(c3)CCN4C)cnc2N)nn1` [Example 10, 3-(1-Isopropyl-1H-[1,2,3]triazol-4-yl)-5-(1-methyl-2,3-dihydro-1H-indol-5-yl)-pyridin-2-ylamine] are 350 nM and 620 nM. Take `CC(C)n1cc(-c2nc(-c3ccc4c(c3)CCN4C)cnc2N)nn1` [Example 11, 3-(1-Isopropyl-1H-[1,2,3]triazol-4-yl)-5-(1-methyl-2,3-dihydro-1H-indol-5-yl)-pyrazin-2-ylamine]: the figures for the IC50 at LRRK2 G2019S and on LRRK2 WT were 340 nM and 570 nM, respectively.

Regarding `CC(C)n1cc(-c2cc(-c3ccc(CN4CCOCC4)cc3)cnc2N)nn1` [Example 12, 3-(1-Isopropyl-H-[1,2,3]triazol-4-yl)-5-(4-morpholin-4-ylmethyl-phenyl)-pyridin-2-ylamine], the IC50 on LRRK2 G2019S was 160 nM; on LRRK2 WT, 300 nM.

Take `CC(C)n1cc(-c2cc(-c3ccc(N4CCOCC4)cc3)cnc2N)nn1` [Example 13, 3-(1-Isopropyl-1H-[1,2,3]triazol-4-yl)-5-(4-morpholin-4-yl-phenyl)-pyridin-2-ylamine]: the IC50 at LRRK2 G2019S came out at 280 nM; at LRRK2 WT, 340 nM. For `CC(C)n1cc(-c2cc(-c3ccc(CCN4CCOCC4)cc3)cnc2N)nn1` [Example 14, 3-(1-Isopropyl-1H-[1,2,3]triazol-4-yl)-5-[4-(2-morpholin-4-yl-ethyl)-phenyl]-pyridin-2-ylamine], the IC50 is 340 nM at LRRK2 G2019S and 600 nM on LRRK2 WT.

Consider `CC(C)n1cc(-c2cc(-c3ccc(CN4CCOCC4)c(F)c3)cnc2N)nn1` [Example 15, 5-(3-fluoro-4-(morpholinomethyl)phenyl)-3-(1-isopropyl-1H-1,2,3-triazol-4-yl)pyridin-2-amine], for which the results for the IC50 at LRRK2 G2019S and at LRRK2 WT were 370 nM and 200 nM, respectively. On the same counts, the results for `CC(C)n1cc(-c2cc(-c3ccc(C(=O)N4CCOCC4)c(F)c3)cnc2N)nn1` [Example 16, (4-(6-amino-5-(1-isopropyl-1H-1,2,3-triazol-4-yl)pyridin-3-yl)-2-fluorophenyl)(morpholino)methanone] are 510 nM and 580 nM. The matching figures for `COc1cc(-c2cnc(N)c(-c3cn(C(C)C)nn3)c2)ccc1C(=O)N1CCOCC1` [Example 17, [4-[6-amino-5-(1-isopropyltriazol-4-yl)-3-pyridyl]-2-methoxy-phenyl]-morpholino-methanone]: 95 nM and 91 nM. On the same counts, the results for `COc1cc(-c2cnc(N)c(-c3cn(C(C)C)nn3)c2)ccc1CN1CCOCC1` [Example 18, 3-(1-isopropyltriazol-4-yl)-5-[3-methoxy-4-(morpholinomethyl)phenyl]pyridin-2-amine] are 86 nM and 93 nM. For the compound `CC(C)n1cc(-c2cc(-c3ccc(F)c(CN4CCOCC4)c3)cnc2N)nn1` [Example 19, 5-[4-fluoro-3-(morpholinomethyl)phenyl]-3-(1-isopropyltriazol-4-yl)pyridin-2-amine], the results for the IC50 on LRRK2 G2019S and on LRRK2 WT were 880 nM and 1000 nM, respectively. Turning to `Cc1cc(-c2cnc(N)c(-c3cn(C(C)C)nn3)c2)ccc1C(=O)N1CCOCC1` [Example 20, [4-[6-amino-5-(1-isopropyltriazol-4-yl)-3-pyridyl]-2-methyl-phenyl]-morpholino-methanone], the IC50 on LRRK2 G2019S was 110 nM; at LRRK2 WT, 99 nM. The matching figures for `Cc1cc(-c2cnc(N)c(-c3cn(C(C)C)nn3)c2)ccc1CN1CCOCC1` [Example 21]: 240 nM and 260 nM. Consider `CC(C)n1cc(-c2cc(-c3ccc(C(=O)N4CCOCC4)c(Cl)c3)cnc2N)nn1` [Example 22, [4-[6-amino-5-(1-isopropyltriazol-4-yl)-3-pyridyl]-2-chloro-phenyl]-morpholino-methanone], for which the IC50 on LRRK2 G2019S and on LRRK2 WT was 290 nM each time.

In the case of `CC(C)n1cc(-c2cc(-c3ccc(CN4CCOCC4)c(Cl)c3)cnc2N)nn1` [Example 23, 5-[3-Chloro-4-(morpholinomethyl)phenyl]-3-(1-isopropyltriazol-4-yl)pyridin-2-amine], the IC50 on LRRK2 G2019S amounted to 220 nM; at LRRK2 WT it was 320 nM. Regarding `CC(C)n1cc(-c2cc(-c3cccc(CN4CCOCC4)c3)cnc2N)nn1` [Example 24, 3-(1-Isopropyltriazol-4-yl)-5-[3-(morpholinomethyl)phenyl]pyridin-2-amine], the results for the IC50 on LRRK2 G2019S and on LRRK2 WT were 500 nM and 370 nM, respectively. The matching figures for `CC(C)n1cc(-c2cc(-c3cccc(C(=O)N4CCOCC4)c3)cnc2N)nn1` [Example 25, [3-[6-Amino-5-(1-isopropyltriazol-4-yl)-3-pyridyl]phenyl]-morpholino-methanone]: 950 nM and 650 nM. Regarding `CC(C)n1cc(-c2cc(-c3cc(Cl)cc(C(=O)N4CCOCC4)c3)cnc2N)nn1` [Example 26, [3-[6-Amino-5-(1-isopropyltriazol-4-yl)-3-pyridyl]-5-chloro-phenyl]-morpholino-methanone], the IC50 on LRRK2 G2019S stood at 690 nM; on LRRK2 WT, 490 nM. `CC(C)n1cc(-c2cc(-c3ccc(C(=O)N4CCOCC4)cc3)cnc2N)nn1` [Example 28, [4-[6-Amino-5-(1-isopropyltriazol-4-yl)-3-pyridyl]phenyl]-morpholino-methanone]: the figures for the IC50 at LRRK2 G2019S and on LRRK2 WT were 430 nM and 370 nM, respectively. Turning to `CC(C)n1cc(-c2cc(-c3ccc(CC(=O)N4CCOCC4)cc3)cnc2N)nn1` [Example 30, 2-[4-[6-amino-5-(1-isopropyltriazol-4-yl)-3-pyridyl]phenyl]-1-morpholino-ethanone], the values for the IC50 on LRRK2 G2019S and at LRRK2 WT were 520 nM and 670 nM, respectively.
